Holding throughout (experiment): DTP human tumour cell line panel, 48 h
The subject of assay [1] is M14.
The subject of assay [2] is SR.
Assay [3] concerns SK-MEL-28.
Assay [4] has as its system SK-OV-3.
Assay [5] concerns NCI/ADR-RES.
Assay [6] deals with SW-620.
Assay [7] concerns MDA-MB-231.
Assay [8] concerns HCT-116.
Assay [9] relates to UACC-62.
The test system of assay [10] is HL-60.
For assay [11], the system named is SK-MEL-5.
The subject of assay [12] is HT-29.
In assay [13] the test system is OVCAR-5.
The subject of assay [14] is A498.
Assay [15] concerns RPMI-8226.
Assay [16] deals with UACC-257.
The subject of assay [17] is CAKI-1.
Assay [18] deals with SN12C.
In assay [19] the test system is Malme-3M.
Assay [20] has as its system SNB-75.

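Following 48 hours of exposure in 96-well plates, responses at five concentrations were used to interpolate endpoints linearly. GI50 is the concentration that inhibits growth by half.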 Activity calls are given as the source filed them. Cut-off read from the data, not from the text of the source: active = GI50 up to about 1.1 µM and inactive = higher.

These results are taken from ChEMBL document CHEMBL1201862, “PubChem BioAssay data set” (2004).

With `CC1=NN(C(=O)c2ccccc2O)C(=O)/C1=C/c1ccc(O)cc1`, the GI50 is 0.351 µM (active) in assay [1]; 0.485 µM (active) in [2]; 52.2 µM (inactive) in assay [3]; 0.26 µM (active) in assay [4]; 0.519 µM (active) in [5]; 2.73 µM (inactive) in assay [6]. In addition, the GI50 in [7] was 58.9 µM (inactive); in assay [8], 0.209 µM (active); in [9] it was 0.34 µM (active); in assay [10] it was 1.02 µM (active); in [11], 0.301 µM (active); in assay [12], 26.9 µM (inactive). For the same molecule, the GI50 in assay [13] is 7.96 µM (inactive); in [14] it was 0.134 µM (active); in assay [15], 0.312 µM (active); in [16] it was 0.658 µM (active); in assay [17], 0.662 µM (active); in assay [18], 1.62 µM (inactive). In addition, the GI50 is 0.431 µM (active) in [19] and 0.23 µM (active) in assay [20].

On to `CC(C)C1(O)C(=O)N(c2c(F)c(F)c(F)c(F)c2F)C(=S)N1CCSc1ccccc1` (stereo not given), for which the GI50 in [1] is 17.5 µM (inactive); in assay [2], 16.2 µM (inactive); in [3], 16.5 µM (inactive); in assay [4] it was 17.3 µM (inactive); in assay [5] it was 16.3 µM (inactive); in assay [6], 16.6 µM (inactive). The GI50 in assay [7] is 13.1 µM (inactive); in assay [8], 18.2 µM (inactive); in assay [9], 15.8 µM (inactive); in assay [10], 14.3 µM (inactive); in assay [11], 17.4 µM (inactive); in assay [12], 18.4 µM (inactive). The GI50 in assay [13] was 18.7 µM (inactive); in [14], 16.3 µM (inactive); in assay [15], 10.9 µM (inactive); in [16] it was 18.2 µM (inactive); in [17], 12.2 µM (inactive); in assay [18], 15.3 µM (inactive). The GI50 in [19] was 17.3 µM (inactive); in assay [20], 16.7 µM (inactive).

`Fc1cccc(C2ON=C(c3ccccc3)N2C23CC4CC(CC(C4)C2)C3)c1` (stereo not given): the GI50 in assay [1] was > 10 µM (inactive); in [2] it was 8.97 µM (inactive); in [3], > 10 µM (inactive); in [4], > 10 µM (inactive); in [5] it was > 10 µM (inactive); in assay [6], > 10 µM (inactive). Further, the GI50 in assay [7], in assay [8], in [9], in assay [10], in assay [11] and in assay [12] was > 10 µM (inactive) each time. For the same molecule, the GI50 in assay [13] was > 10 µM (inactive); in assay [14] it was > 10 µM (inactive); in [15], 8.77 µM (inactive); in assay [16] it was > 10 µM (inactive); in assay [17] it was > 10 µM (inactive); in [18] it was > 10 µM (inactive). The GI50 in [19] and in assay [20] was > 10 µM (inactive) each time.

As for `CCOC(=O)/C=C(\C(=O)OCC)n1ccc(=O)n(Cc2cnnn2CCCCOC(C)=O)c1=O`, the GI50 in assay [1] is 17.5 µM (inactive); in [2], 2.19 µM (inactive); in assay [3] it was 6 µM (inactive); in assay [4], 34 µM (inactive); in assay [5] it was 17.6 µM (inactive); in [6], 2.05 µM (inactive). Also, the GI50 in assay [7] is 15.2 µM (inactive); in [8] it was 6.21 µM (inactive); in [9], 6.14 µM (inactive); in [10] it was 2.79 µM (inactive); in assay [11] it was 13.5 µM (inactive); in [12] it was 9.08 µM (inactive). In addition, the GI50 in assay [13] was 12.4 µM (inactive); in assay [14], 21.1 µM (inactive); in [15], 6.68 µM (inactive); in assay [16], 11.3 µM (inactive); in assay [17], 2.38 µM (inactive); in [18], 10.4 µM (inactive). Moreover, the GI50 in assay [19] is 2.06 µM (inactive); in assay [20], 14 µM (inactive).

With `N#CC(=S)Nc1ccc(F)cc1`, the GI50 in assay [1] is 54.3 µM (inactive); in assay [2], 40.6 µM (inactive); in assay [3], 45.5 µM (inactive); in [4] it was > 100 µM (inactive); in [5], 34.2 µM (inactive); in assay [6], 60.8 µM (inactive). Further, the GI50 in [7] is > 100 µM (inactive); in assay [8], 86.1 µM (inactive); in assay [9], 40.2 µM (inactive); in assay [10] it was 30.4 µM (inactive); in assay [11] it was 17 µM (inactive); in assay [12], 67.8 µM (inactive). Besides, the GI50 in assay [13] was 83.9 µM (inactive); in [14] it was 32.7 µM (inactive); in [15] it was 8.22 µM (inactive); in [16], 30.6 µM (inactive); in [17], 63.8 µM (inactive); in assay [18] it was > 100 µM (inactive). Also, the GI50 is 50.2 µM (inactive) in assay [19] and > 100 µM (inactive) in assay [20].

With `O=C(NNC(=O)c1ccccc1O)c1ccc(O)cc1`, the GI50 is 23.7 µM (inactive) in assay [1]; 49.1 µM (inactive) in assay [2]; > 100 µM (inactive) in assay [3]; 33.4 µM (inactive) in assay [4]; 22.1 µM (inactive) in assay [5]; 81.3 µM (inactive) in assay [6]. For the same molecule, the GI50 in assay [7] is 10.2 µM (inactive); in assay [8], 33.2 µM (inactive); in assay [9], 28.1 µM (inactive); in assay [10], 52.8 µM (inactive); in [11], > 100 µM (inactive); in [12], 37.4 µM (inactive). The GI50 in assay [13] was > 100 µM (inactive); in assay [14] it was > 100 µM (inactive); in [15] it was 81.5 µM (inactive); in assay [16], 89.1 µM (inactive); in assay [17], 50.9 µM (inactive); in assay [18], > 100 µM (inactive). Further, the GI50 is 14.5 µM (inactive) in [19] and 24.4 µM (inactive) in [20].

Regarding `S=C(N/N=C/c1ccccn1)N1CCCCCC1`, the 50% growth inhibitory concentration (GI50) in assay [1] was < 0.01 µM (active); in assay [2], < 0.01 µM (active); in [3] it was 0.215 µM (active); in [4], < 0.01 µM (active); in assay [5], < 0.01 µM (active); in [6], < 0.01 µM (active). Also, the GI50 in assay [7] is < 0.01 µM (active); in [8], < 0.01 µM (active); in [9] it was < 0.0245 µM (active); in assay [10], < 0.01 µM (active); in [11], < 0.0141 µM (active); in assay [12], < 0.01 µM (active). The concentration for 50% growth inhibition (GI50) in assay [13] was < 0.0458 µM (active); in [14] it was < 0.0391 µM (active); in assay [15] it was < 0.01 µM (active); in assay [16], < 0.01 µM (active); in assay [17], < 0.0423 µM (active); in assay [18], < 0.0192 µM (active). In addition, the values for the GI50 in [19] and in assay [20] were < 0.0392 µM (active) and 0.0783 µM (active), respectively.
